From ChEMBL document CHEMBL1681644, “Scaffold oriented synthesis. Part 3: design, synthesis and biological evaluation of novel 5-substituted indazoles as potent and selective kinase inhibitors employing [2+3] cycloadditions” (Bioorg Med Chem Lett, 2011)

Assays:
[1] = target: Tyrosine-protein kinase JAK2 (Homo sapiens, UniProt O60674); assay: Inhibition of JAK2 after 1 hr using biotinylated PDKtide as substrate
[2] = target: Vascular endothelial growth factor receptor 2 (Homo sapiens, UniProt P35968); assay: Inhibition of KDR after 1 hr
Vascular endothelial growth factor receptor 2, sequence (P35968 whole entry): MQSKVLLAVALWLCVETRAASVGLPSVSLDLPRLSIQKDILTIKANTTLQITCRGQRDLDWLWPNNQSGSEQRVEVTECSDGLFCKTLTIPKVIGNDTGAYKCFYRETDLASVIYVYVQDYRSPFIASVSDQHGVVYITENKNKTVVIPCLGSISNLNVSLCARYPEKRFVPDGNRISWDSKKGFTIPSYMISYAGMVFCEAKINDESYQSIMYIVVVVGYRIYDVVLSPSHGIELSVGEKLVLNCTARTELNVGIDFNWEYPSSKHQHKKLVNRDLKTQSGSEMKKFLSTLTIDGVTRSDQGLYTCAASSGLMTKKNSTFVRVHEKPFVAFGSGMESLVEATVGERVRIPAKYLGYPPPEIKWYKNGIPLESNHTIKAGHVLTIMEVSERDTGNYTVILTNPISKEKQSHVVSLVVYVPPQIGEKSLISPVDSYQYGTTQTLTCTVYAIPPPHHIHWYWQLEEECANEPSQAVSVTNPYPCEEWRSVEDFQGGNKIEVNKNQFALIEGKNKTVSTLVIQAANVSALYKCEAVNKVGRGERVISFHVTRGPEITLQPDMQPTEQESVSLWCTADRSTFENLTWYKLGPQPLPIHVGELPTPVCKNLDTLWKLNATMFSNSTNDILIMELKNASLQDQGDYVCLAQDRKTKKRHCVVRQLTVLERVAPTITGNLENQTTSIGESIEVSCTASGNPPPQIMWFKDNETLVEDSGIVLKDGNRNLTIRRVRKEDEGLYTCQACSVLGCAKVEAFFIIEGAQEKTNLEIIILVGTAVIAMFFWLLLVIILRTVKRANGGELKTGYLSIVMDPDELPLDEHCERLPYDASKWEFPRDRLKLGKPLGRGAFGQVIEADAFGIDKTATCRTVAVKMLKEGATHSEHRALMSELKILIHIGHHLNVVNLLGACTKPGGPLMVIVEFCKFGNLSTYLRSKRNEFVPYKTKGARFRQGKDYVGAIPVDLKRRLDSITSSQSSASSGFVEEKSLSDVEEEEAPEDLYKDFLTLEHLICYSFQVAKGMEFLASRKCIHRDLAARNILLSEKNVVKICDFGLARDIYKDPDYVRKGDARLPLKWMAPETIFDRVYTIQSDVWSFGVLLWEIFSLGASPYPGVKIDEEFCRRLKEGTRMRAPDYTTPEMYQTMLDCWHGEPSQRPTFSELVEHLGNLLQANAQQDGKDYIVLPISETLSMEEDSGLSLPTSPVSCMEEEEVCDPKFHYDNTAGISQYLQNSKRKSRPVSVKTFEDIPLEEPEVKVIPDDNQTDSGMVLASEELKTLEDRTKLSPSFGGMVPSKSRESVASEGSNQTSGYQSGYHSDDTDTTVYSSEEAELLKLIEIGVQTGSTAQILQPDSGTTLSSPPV

[3] = target: Rho-associated protein kinase 2 (Homo sapiens, UniProt O75116); assay: Inhibition of Rock2 after 1 hr using biotinylated longS peptide as substrate
Rho-associated protein kinase 2, sequence (O75116 whole entry): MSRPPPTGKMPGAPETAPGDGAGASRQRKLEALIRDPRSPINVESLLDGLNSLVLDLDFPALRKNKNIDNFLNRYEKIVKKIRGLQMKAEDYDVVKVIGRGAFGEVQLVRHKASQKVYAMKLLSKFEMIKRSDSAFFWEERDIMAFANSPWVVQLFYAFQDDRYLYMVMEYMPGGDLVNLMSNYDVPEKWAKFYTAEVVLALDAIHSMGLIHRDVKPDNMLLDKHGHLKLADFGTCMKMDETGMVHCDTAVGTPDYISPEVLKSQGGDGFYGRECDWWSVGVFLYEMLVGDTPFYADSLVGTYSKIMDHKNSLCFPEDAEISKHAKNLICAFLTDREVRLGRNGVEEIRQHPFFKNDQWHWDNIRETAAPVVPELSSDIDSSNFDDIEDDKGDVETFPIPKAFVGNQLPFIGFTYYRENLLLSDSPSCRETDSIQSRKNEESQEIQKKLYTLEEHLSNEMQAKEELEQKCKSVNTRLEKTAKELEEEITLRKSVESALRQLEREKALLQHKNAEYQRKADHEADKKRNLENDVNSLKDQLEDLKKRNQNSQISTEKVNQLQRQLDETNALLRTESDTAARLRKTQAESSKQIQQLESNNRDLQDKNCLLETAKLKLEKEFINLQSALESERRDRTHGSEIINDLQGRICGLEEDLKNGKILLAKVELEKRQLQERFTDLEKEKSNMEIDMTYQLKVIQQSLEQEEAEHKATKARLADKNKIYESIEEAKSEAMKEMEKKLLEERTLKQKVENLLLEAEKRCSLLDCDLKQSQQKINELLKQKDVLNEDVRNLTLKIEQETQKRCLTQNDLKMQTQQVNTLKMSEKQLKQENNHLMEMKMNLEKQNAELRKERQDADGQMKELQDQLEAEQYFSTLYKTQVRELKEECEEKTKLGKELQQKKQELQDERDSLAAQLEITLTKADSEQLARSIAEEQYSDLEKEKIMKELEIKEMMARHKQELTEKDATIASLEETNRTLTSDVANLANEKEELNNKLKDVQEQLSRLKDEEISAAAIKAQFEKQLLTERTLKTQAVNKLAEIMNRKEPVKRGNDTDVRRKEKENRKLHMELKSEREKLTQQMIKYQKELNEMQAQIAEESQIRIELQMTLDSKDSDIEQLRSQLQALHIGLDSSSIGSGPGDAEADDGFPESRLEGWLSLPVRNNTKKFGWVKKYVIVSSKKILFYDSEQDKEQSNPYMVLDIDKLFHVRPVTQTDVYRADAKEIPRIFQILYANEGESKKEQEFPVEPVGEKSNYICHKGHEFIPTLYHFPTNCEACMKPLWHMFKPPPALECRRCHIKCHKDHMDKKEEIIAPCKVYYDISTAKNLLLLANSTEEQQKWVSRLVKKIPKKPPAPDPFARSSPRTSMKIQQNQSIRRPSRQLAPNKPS

[4] = target: Glycogen synthase kinase-3 beta (Homo sapiens, UniProt P49841)
Description: Inhibition of GSK3-beta after 1 hr

[5] = target: Serine/threonine-protein kinase pim-1 (Homo sapiens, UniProt P11309); assay: Inhibition of Pim1 after 1 hr using biotinylated AL1peptide as substrate
Serine/threonine-protein kinase pim-1, sequence (P11309 whole entry): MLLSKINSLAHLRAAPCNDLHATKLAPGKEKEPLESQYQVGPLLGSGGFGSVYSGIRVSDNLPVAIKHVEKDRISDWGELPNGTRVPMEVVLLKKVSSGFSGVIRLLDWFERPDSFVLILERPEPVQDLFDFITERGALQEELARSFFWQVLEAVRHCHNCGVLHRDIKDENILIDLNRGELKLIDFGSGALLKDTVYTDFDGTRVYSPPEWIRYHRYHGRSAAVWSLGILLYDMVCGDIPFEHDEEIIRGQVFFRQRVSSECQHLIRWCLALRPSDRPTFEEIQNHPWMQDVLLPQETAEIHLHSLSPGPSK

[6] = target: Serine/threonine-protein kinase PAK 4 (Homo sapiens, UniProt O96013); assay: Inhibition of Pak4 after 1 hr using biotinylated L15 peptide as substrate
Serine/threonine-protein kinase PAK 4, sequence (O96013 whole entry): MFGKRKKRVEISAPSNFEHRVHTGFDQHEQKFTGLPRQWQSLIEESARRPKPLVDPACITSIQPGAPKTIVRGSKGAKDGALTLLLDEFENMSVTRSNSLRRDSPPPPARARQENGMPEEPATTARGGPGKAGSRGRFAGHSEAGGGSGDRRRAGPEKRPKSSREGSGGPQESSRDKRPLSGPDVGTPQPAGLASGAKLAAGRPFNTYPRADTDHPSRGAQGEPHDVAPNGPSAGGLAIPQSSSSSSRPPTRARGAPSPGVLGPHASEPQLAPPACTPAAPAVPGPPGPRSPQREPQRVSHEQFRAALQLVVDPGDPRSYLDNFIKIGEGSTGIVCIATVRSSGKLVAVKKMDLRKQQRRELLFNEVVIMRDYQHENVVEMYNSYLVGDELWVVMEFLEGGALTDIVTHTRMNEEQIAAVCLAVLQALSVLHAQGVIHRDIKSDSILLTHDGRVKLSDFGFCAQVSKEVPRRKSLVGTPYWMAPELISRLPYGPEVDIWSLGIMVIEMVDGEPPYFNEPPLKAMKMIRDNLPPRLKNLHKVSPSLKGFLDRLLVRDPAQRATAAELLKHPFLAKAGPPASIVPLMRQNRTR

[7] = target: Epidermal growth factor receptor (Homo sapiens, UniProt P00533)
Description: Inhibition of EGFR after 1 hr

Tyrosine-protein kinase JAK2, sequence (O60674 whole entry): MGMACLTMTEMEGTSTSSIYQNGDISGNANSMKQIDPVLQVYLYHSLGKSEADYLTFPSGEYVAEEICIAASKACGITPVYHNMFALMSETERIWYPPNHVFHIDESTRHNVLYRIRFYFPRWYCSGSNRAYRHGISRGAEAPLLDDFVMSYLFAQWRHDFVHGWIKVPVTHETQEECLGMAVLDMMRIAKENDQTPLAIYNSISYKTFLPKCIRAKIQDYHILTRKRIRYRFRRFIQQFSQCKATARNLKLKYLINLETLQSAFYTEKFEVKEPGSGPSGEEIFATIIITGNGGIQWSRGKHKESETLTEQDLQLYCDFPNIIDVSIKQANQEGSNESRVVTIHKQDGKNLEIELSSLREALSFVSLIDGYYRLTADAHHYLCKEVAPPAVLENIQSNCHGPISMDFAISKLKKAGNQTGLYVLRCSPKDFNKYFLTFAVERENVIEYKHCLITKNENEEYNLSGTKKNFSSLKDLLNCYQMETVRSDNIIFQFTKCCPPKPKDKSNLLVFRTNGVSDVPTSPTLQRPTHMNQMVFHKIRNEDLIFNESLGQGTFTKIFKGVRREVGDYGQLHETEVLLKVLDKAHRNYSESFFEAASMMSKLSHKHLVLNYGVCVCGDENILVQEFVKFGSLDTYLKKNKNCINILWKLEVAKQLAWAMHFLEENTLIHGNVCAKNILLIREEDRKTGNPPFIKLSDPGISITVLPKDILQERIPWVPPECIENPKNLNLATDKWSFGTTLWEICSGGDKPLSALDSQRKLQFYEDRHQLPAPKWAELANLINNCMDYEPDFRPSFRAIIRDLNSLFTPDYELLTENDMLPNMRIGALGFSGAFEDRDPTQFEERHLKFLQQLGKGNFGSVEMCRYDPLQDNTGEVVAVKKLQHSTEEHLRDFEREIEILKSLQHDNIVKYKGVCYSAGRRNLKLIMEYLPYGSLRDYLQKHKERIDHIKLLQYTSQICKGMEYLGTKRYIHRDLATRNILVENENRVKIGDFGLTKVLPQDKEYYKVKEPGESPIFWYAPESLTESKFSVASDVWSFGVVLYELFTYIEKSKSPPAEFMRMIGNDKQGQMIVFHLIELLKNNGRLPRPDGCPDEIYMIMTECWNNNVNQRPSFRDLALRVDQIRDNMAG

Structure (SMILES) | Ki [1] [nM] | Ki [2] [nM] | Ki [3] [nM] | Ki [4] [nM] | Ki [5] [nM] | Ki [6] [nM] | Ki [7] [nM]
Fc1ccccc1Cn1cc(-c2ccc3[nH]ncc3c2)nn1 | – | > 915 | 285 | 91 | 10200 | 13100 | –
COCc1cn(-c2ccc3[nH]ncc3c2)nn1 | > 1450 | > 8880 | 635 | > 5450 | > 8570 | > 3750 | > 1800
c1ccc(Cc2cn(-c3ccc4[nH]ncc4c3)nn2)cc1 | – | – | – | 542 | – | – | –
c1cc2[nH]ncc2cc1-n1cc(C2CCCC2)nn1 | 791 | > 8880 | 44 | 1300 | > 8570 | > 3750 | > 1800
CCCc1cn(-c2ccc3[nH]ncc3c2)nn1 | 756 | > 8880 | 108 | 2030 | 8360 | > 3750 | > 1800
c1cc2[nH]ncc2cc1-n1cc(CC2CCCCC2)nn1 | 281 | > 8880 | 100 | 891 | > 8570 | > 3750 | > 1800
Clc1ccccc1Cn1cc(-c2ccc3[nH]ncc3c2)nn1 | > 1450 | – | 97 | 45 | 4150 | – | –
c1ccc(CCCc2cn(-c3ccc4[nH]ncc4c3)nn2)cc1 | 644 | > 8880 | 62 | 528 | > 8570 | > 3750 | > 1800
c1cc2[nH]ncc2cc1-n1cc(C2CC2)nn1 | 1450 | > 8880 | 356 | 3470 | > 8570 | > 3750 | > 1800
Fc1ccc(Cn2cc(-c3ccc4[nH]ncc4c3)nn2)cc1 | – | – | 285 | 70 | 165000 | – | –
Clc1cccc(Cn2cc(-c3ccc4[nH]ncc4c3)nn2)c1Cl | – | – | 15 | 48 | 20300 | 67600 | –
Clc1ccc(Cn2cc(-c3ccc4[nH]ncc4c3)nn2)cc1 | – | 2710 | 68 | 197 | 37800 | – | –
c1ccc(CCc2cn(-c3ccc4[nH]ncc4c3)nn2)cc1 | 898 | > 8880 | 19 | 446 | > 8570 | > 3750 | > 1800
c1cc2n[nH]cc2cc1-c1c[nH]nn1 | 1450 | 3550 | 209 | 448 | 2220 | 69900 | –
OCCCc1cn(-c2ccc3[nH]ncc3c2)nn1 | 1450 | > 8880 | 230 | 5220 | > 8570 | > 3750 | > 1800
Nc1n[nH]c2ccc(-c3cc(Cc4ccccc4)no3)cc12 | 16 | 3290 | 16 | 450 | 5160 | 3590 | –

Other lines, results leading:

Ki [1] [nM] | Ki [2] [nM] | Ki [3] [nM] | Ki [4] [nM] | Ki [5] [nM] | Ki [6] [nM] | Ki [7] [nM] | Structure (SMILES)
1450 | 13100 | 39 | 23 | – | – | – | Clc1cccc(Cn2cc(-c3ccc4[nH]ncc4c3)nn2)c1
– | 127000 | 18 | 16 | 36000 | – | – | Clc1ccc(Cl)c(Cn2cc(-c3ccc4[nH]ncc4c3)nn2)c1
– | > 8880 | 402 | 4270 | 3680 | > 3750 | – | CNC(=O)c1cc(-c2ccc3[nH]ncc3c2)on1
> 1450 | – | – | 3810 | – | – | – | c1cc2[nH]ncc2cc1-c1cc(CN2CCCCC2)no1
– | – | – | 2530 | – | – | – | CCCc1cc(-c2ccc3[nH]ncc3c2)on1
– | – | 180 | 26 | 12000 | – | – | Fc1cccc(Cn2cc(-c3ccc4[nH]ncc4c3)nn2)c1
– | > 915 | 375 | 70 | – | – | – | Cc1cccc(Cn2cc(-c3ccc4[nH]ncc4c3)nn2)c1
– | > 915 | 41 | 28 | 41500 | – | – | Clc1cc(Cl)cc(Cn2cc(-c3ccc4[nH]ncc4c3)nn2)c1
